Measurements as given in paper PMC5218480 (PLoS ONE, 2017).

Test system: MV-4-11 cells
Assay: Gene expression microarray analysis (Affymetrix PrimeView) and GSEA
Type: cell-based, human
Parameters: RFU PODN (11730768_x_at) / Fold change /veh PODN (11730768_x_at) / RFU LINC00158 (11744669_a_at) / Fold change /veh LINC00158 (11744669_a_at) / RFU DUSP10 (11751237_a_at) / Fold change /veh DUSP10 (11751237_a_at) / RFU ID3 (11757404_x_at) / Fold change /veh ID3 (11757404_x_at) / RFU PLEKHG5 (11737974_s_at) / Fold change /veh PLEKHG5 (11737974_s_at) / RFU LRRC4B (11730491_at) / Fold change /veh LRRC4B (11730491_at) / RFU GIMAP4 (11747438_a_at) / Fold change /veh GIMAP4 (11747438_a_at) / RFU KRT8 (11758183_x_at) / Fold change /veh KRT8 (11758183_x_at) / RFU CNN1 (11734310_a_at) / Fold change /veh CNN1 (11734310_a_at) / RFU VPS37D (11726825_at) / Fold change /veh VPS37D (11726825_at) / RFU C10orf10 (11716522_x_at) / Fold change /veh C10orf10 (11716522_x_at) / RFU KIR2DL2 /// KIR2DL4 /// KIR2DL5A /// KIR2DL5B /// KIR2DS1 /// KIR2DS2 /// KIR2DS3 /// KIR2DS4 /// KIR3DL3 /// KIR3DL3 /// KIR3DS1 (11738374_at) / Fold change /veh KIR2DL2 /// KIR2DL4 /// KIR2DL5A /// KIR2DL5B /// KIR2DS1 /// KIR2DS2 /// KIR2DS3 /// KIR2DS4 /// KIR3DL3 /// KIR3DL3 /// KIR3DS1 (11738374_at) / RFU C1QL1 (11718748_at) / Fold change /veh C1QL1 (11718748_at) / RFU TMPRSS4 (11747572_a_at) / Fold change /veh TMPRSS4 (11747572_a_at) / RFU HAMP (11756126_x_at) / Fold change /veh HAMP (11756126_x_at) / RFU RNFT2 (11725882_a_at) / Fold change /veh RNFT2 (11725882_a_at) / RFU NR4A2 (11747474_a_at) / Fold change /veh NR4A2 (11747474_a_at) / RFU ABCC12 (11746883_a_at) / Fold change /veh ABCC12 (11746883_a_at) / RFU TMEM136 (11760407_x_at) / Fold change /veh TMEM136 (11760407_x_at) / RFU CLDN22 /// WWC2 (11732394_at) / Fold change /veh CLDN22 /// WWC2 (11732394_at) / RFU HLA-DPB1 (11760878_x_at) / Fold change /veh HLA-DPB1 (11760878_x_at) / RFU SPINT1 (11716480_a_at) / Fold change /veh SPINT1 (11716480_a_at) / RFU GAP43 (11754022_s_at) / Fold change /veh GAP43 (11754022_s_at) / RFU A4GNT (11735810_at) / Fold change /veh A4GNT (11735810_at) / RFU PRB3 (11715151_x_at) / Fold change /veh PRB3 (11715151_x_at) / RFU TUBB4B (11761932_at) / Fold change /veh TUBB4B (11761932_at) / RFU CAPN14 (11732068_a_at) / Fold change /veh CAPN14 (11732068_a_at) / RFU TMCC2 (11721928_a_at) / Fold change /veh TMCC2 (11721928_a_at) / RFU IRGQ (11745062_a_at) / Fold change /veh IRGQ (11745062_a_at) / RFU FAM174B (11720279_a_at) / Fold change /veh FAM174B (11720279_a_at) / RFU TMPRSS4 (11748680_a_at) / Fold change /veh TMPRSS4 (11748680_a_at) / RFU FAM212B (11763350_a_at) / Fold change /veh FAM212B (11763350_a_at) / RFU PLEKHG5 (11743358_a_at) / Fold change /veh PLEKHG5 (11743358_a_at) / RFU ZSCAN30 (11745921_a_at) / Fold change /veh ZSCAN30 (11745921_a_at) / RFU CMKLR1 (11741424_a_at) / Fold change /veh CMKLR1 (11741424_a_at) / RFU LOC101060620 /// MAPK8IP1 (11723275_at) / Fold change /veh LOC101060620 /// MAPK8IP1 (11723275_at) / RFU SPTSSB (11747773_x_at) / Fold change /veh SPTSSB (11747773_x_at) / RFU PRSS12 (11739890_at) / Fold change /veh PRSS12 (11739890_at) / RFU BIN1 (11741810_x_at) / Fold change /veh BIN1 (11741810_x_at) / RFU WNT11 (11732464_a_at) / Fold change /veh WNT11 (11732464_a_at) / RFU C10orf10 (11716521_a_at) / Fold change /veh C10orf10 (11716521_a_at) / RFU C5orf56 (11738089_at) / Fold change /veh C5orf56 (11738089_at) / RFU CYB561 (11721691_x_at) / Fold change /veh CYB561 (11721691_x_at) / RFU ANKRD19P (11752326_a_at) / Fold change /veh ANKRD19P (11752326_a_at) / RFU OR2T12 /// OR2T33 /// OR2T8 (11738714_s_at) / Fold change /veh OR2T12 /// OR2T33 /// OR2T8 (11738714_s_at) / RFU VCAN (11748164_a_at) / Fold change /veh VCAN (11748164_a_at) / RFU JSRP1 (11732532_at) / Fold change /veh JSRP1 (11732532_at) / RFU KRTAP10-11 (11738290_x_at) / Fold change /veh KRTAP10-11 (11738290_x_at) / RFU MYO3A (11730013_a_at) / Fold change /veh MYO3A (11730013_a_at) / RFU EBF3 (11725865_a_at) / Fold change /veh EBF3 (11725865_a_at) / RFU CAMK2N1 (11719241_x_at) / Fold change /veh CAMK2N1 (11719241_x_at) / RFU C5orf56 (11738088_a_at) / Fold change /veh C5orf56 (11738088_a_at) / RFU OLFML3 (11715873_a_at) / Fold change /veh OLFML3 (11715873_a_at) / RFU LOC100653217 /// NTM (11731650_a_at) / Fold change /veh LOC100653217 /// NTM (11731650_a_at) / RFU MAPK11 (11762145_a_at) / Fold change /veh MAPK11 (11762145_a_at) / RFU FIZ1 (11724087_x_at) / Fold change /veh FIZ1 (11724087_x_at) / RFU OASL (11726364_x_at) / Fold change /veh OASL (11726364_x_at) / RFU SOX15 (11748057_x_at) / Fold change /veh SOX15 (11748057_x_at) / RFU CD79A (11719716_a_at) / Fold change /veh CD79A (11719716_a_at) / RFU HIST1H1D (11736915_at) / Fold change /veh HIST1H1D (11736915_at) / RFU CASKIN2 (11723855_a_at) / Fold change /veh CASKIN2 (11723855_a_at) / RFU LOC730098 (11760151_x_at) / Fold change /veh LOC730098 (11760151_x_at) / RFU OR4N2 (11742367_at) / Fold change /veh OR4N2 (11742367_at) / RFU PRRT2 (11749266_a_at) / Fold change /veh PRRT2 (11749266_a_at) / RFU SNX32 (11753110_a_at) / Fold change /veh SNX32 (11753110_a_at) / RFU CDHR5 (11726645_a_at) / Fold change /veh CDHR5 (11726645_a_at) / RFU RCAN1 (11760418_a_at) / Fold change /veh RCAN1 (11760418_a_at) / RFU FAM167A (11723789_a_at) / Fold change /veh FAM167A (11723789_a_at) / RFU FAM26E (11764081_at) / Fold change /veh FAM26E (11764081_at) / RFU ISYNA1 (11749810_s_at) / Fold change /veh ISYNA1 (11749810_s_at) / RFU ACY1 (11761880_at) / Fold change /veh ACY1 (11761880_at) / RFU 11764098_at / Fold change /veh 11764098_at / RFU SAMD14 (11745864_x_at) / Fold change /veh SAMD14 (11745864_x_at) / RFU NPB (11741838_a_at) / Fold change /veh NPB (11741838_a_at) / RFU TMPRSS6 (11731388_a_at) / Fold change /veh TMPRSS6 (11731388_a_at) / RFU KRTAP10-2 (11738614_at) / Fold change /veh KRTAP10-2 (11738614_at) / RFU ARHGAP8 /// PRR5-ARHGAP8 (11727945_x_at) / Fold change /veh ARHGAP8 /// PRR5-ARHGAP8 (11727945_x_at) / RFU KRTAP5-7 /// NADSYN1 (11734609_at) / Fold change /veh KRTAP5-7 /// NADSYN1 (11734609_at) / RFU RASL12 (11751679_a_at) / Fold change /veh RASL12 (11751679_a_at) / RFU CDKN2B (11736163_a_at) / Fold change /veh CDKN2B (11736163_a_at) / RFU PRF1 (11729649_at) / Fold change /veh PRF1 (11729649_at) / RFU, ZNF638 /// ZNF638-IT1 / Fold change vs veh, ZNF638 /// ZNF638-IT1 / RFU, PANK3 / Fold change vs veh, PANK3 / RFU, SH3YL1 / Fold change vs veh, SH3YL1 / RFU, ZEB2 / Fold change vs veh, ZEB2 / RFU, NRIP1 / Fold change vs veh, NRIP1 / RFU, PTTG1IP / Fold change vs veh, PTTG1IP / RFU, CAPN2 / Fold change vs veh, CAPN2 / RFU, MED14 / Fold change vs veh, MED14 / RFU, SNORA58 / Fold change vs veh, SNORA58 / RFU, C1orf63 / Fold change vs veh, C1orf63 / RFU, LRRFIP1 / Fold change vs veh, LRRFIP1 / RFU, NDUFAF7 / Fold change vs veh, NDUFAF7 / RFU, SLC12A2 / Fold change vs veh, SLC12A2 / RFU, IBTK / Fold change vs veh, IBTK / RFU, ESF1 / Fold change vs veh, ESF1 / Fold change vs veh, TMEM50B / RFU, TAOK1 / Fold change vs veh, TAOK1 / RFU, ACBD3 / Fold change vs veh, ACBD3 / RFU, TMA16 / Fold change vs veh, TMA16 / RFU, RWDD3 / Fold change vs veh, RWDD3 / RFU, BCAT1 / Fold change vs veh, BCAT1 / RFU, EDEM3 / Fold change vs veh, EDEM3 / RFU, TMEM33 / Fold change vs veh, TMEM33 / RFU, WDR75 / Fold change vs veh, WDR75 / RFU, AHCTF1 / Fold change vs veh, AHCTF1 / RFU, TFRC / Fold change vs veh, TFRC / RFU, ZDHHC17 / Fold change vs veh, ZDHHC17 / RFU, NOM1 / Fold change vs veh, NOM1 / RFU, ARL8B / Fold change vs veh, ARL8B / RFU, ZBTB11 / Fold change vs veh, ZBTB11 / RFU, TAMM41 / Fold change vs veh, TAMM41 / RFU, KIAA1704 /// LOC100996395 / Fold change vs veh, KIAA1704 /// LOC100996395 / RFU, ING1 / Fold change vs veh, ING1 / RFU, TRMT61B / Fold change vs veh, TRMT61B / RFU, FUBP3 / Fold change vs veh, FUBP3 / RFU, TP53 / Fold change vs veh, TP53 / RFU, TNKS2 / Fold change vs veh, TNKS2 / RFU, ZFP14 / Fold change vs veh, ZFP14 / RFU, ACTR2 / Fold change vs veh, ACTR2 / RFU, PPP3R1 / Fold change vs veh, PPP3R1 / RFU, PIK3R1 / Fold change vs veh, PIK3R1 / RFU, HNRNPA1 / Fold change vs veh, HNRNPA1 / RFU, RNF170 / Fold change vs veh, RNF170 / RFU, ZNF28 / Fold change vs veh, ZNF28 / RFU, RNGTT / Fold change vs veh, RNGTT / RFU, OGT / Fold change vs veh, OGT / RFU, BRD1 / Fold change vs veh, BRD1 / RFU, MARS / Fold change vs veh, MARS / RFU, ZNF655 / Fold change vs veh, ZNF655 / RFU, FAHD1 / Fold change vs veh, FAHD1 / RFU, BDP1 / Fold change vs veh, BDP1 / RFU, LRRCC1 / Fold change vs veh, LRRCC1 / RFU, ARID1A / Fold change vs veh, ARID1A / RFU, ZNF146 / Fold change vs veh, ZNF146 / RFU, ZNF330 / Fold change vs veh, ZNF330 / RFU, GPN3 / Fold change vs veh, GPN3 / RFU, C9orf123 / Fold change vs veh, C9orf123 / RFU, N4BP2L2 / Fold change vs veh, N4BP2L2 / RFU, ARFIP1 / Fold change vs veh, ARFIP1 / RFU, FAM179B / Fold change vs veh, FAM179B / RFU, BCL10 / Fold change vs veh, BCL10 / RFU, UHRF1BP1L / Fold change vs veh, UHRF1BP1L / RFU, BET1 / Fold change vs veh, BET1 / RFU, CNOT2 / Fold change vs veh, CNOT2 / RFU, ZNF268 / Fold change vs veh, ZNF268 / Fold change vs veh, ZNF507 / RFU, DGCR2 / Fold change vs veh, DGCR2 / RFU, WDSUB1 / Fold change vs veh, WDSUB1 / Fold change vs veh, HSP90B1 /// MIR3652 / RFU, ADSS / Fold change vs veh, ADSS / RFU, GK / Fold change vs veh, GK / RFU, ZNF148 / Fold change vs veh, ZNF148 / RFU, TAF9 / Fold change vs veh, TAF9 / RFU, SLC1A5 / Fold change vs veh, SLC1A5 / RFU, SLMO2 / Fold change vs veh, SLMO2 / RFU, ABCC4 / Fold change vs veh, ABCC4 / RFU, LOC101060439 /// RAP1B / Fold change vs veh, LOC101060439 /// RAP1B / RFU, RFX7 / Fold change vs veh, RFX7 / RFU, GTPBP10 / Fold change vs veh, GTPBP10 / RFU, CNEP1R1 / Fold change vs veh, CNEP1R1 / RFU, BIVM-ERCC5 /// ERCC5 / Fold change vs veh, BIVM-ERCC5 /// ERCC5 / RFU, ILF3 / Fold change vs veh, ILF3 / RFU 11762660_at / Fold change /veh 11762660_at / RFU VCAN (11757783_s_at) / Fold change /veh VCAN (11757783_s_at) / RFU DDX43 (11728927_at) / Fold change /veh DDX43 (11728927_at) / RFU KRT8 (11758188_x_at) / Fold change /veh KRT8 (11758188_x_at) / RFU NKD1 (11759106_at) / Fold change /veh NKD1 (11759106_at) / RFU SRD5A1 (11742802_a_at) / Fold change /veh SRD5A1 (11742802_a_at) / RFU TPSAB1 /// TPSB2 (11721975_s_at) / Fold change /veh TPSAB1 /// TPSB2 (11721975_s_at) / RFU GSTM3 (11746129_a_at) / Fold change /veh GSTM3 (11746129_a_at) / RFU IL23R (11737362_x_at) / Fold change /veh IL23R (11737362_x_at) / RFU TMEM51 (11727254_a_at) / Fold change /veh TMEM51 (11727254_a_at) / RFU PIWIL2 (11732686_x_at) / Fold change /veh PIWIL2 (11732686_x_at) / RFU ORM1 (11744905_x_at) / Fold change /veh ORM1 (11744905_x_at) / RFU CCDC152 (11743942_at) / Fold change /veh CCDC152 (11743942_at) / RFU ECM1 (11717891_a_at) / Fold change /veh ECM1 (11717891_a_at) / RFU IL23R (11748794_a_at) / Fold change /veh IL23R (11748794_a_at) / RFU TNFAIP8L3 (11732012_x_at) / Fold change /veh TNFAIP8L3 (11732012_x_at) / RFU MBOAT4 (11741988_at) / Fold change /veh MBOAT4 (11741988_at) / RFU 11764193_at / Fold change /veh 11764193_at / RFU TMEM53 (11763286_at) / Fold change /veh TMEM53 (11763286_at) / RFU MAGEB2 (11727129_at) / Fold change /veh MAGEB2 (11727129_at) / RFU TMEM200A (11744735_a_at) / Fold change /veh TMEM200A (11744735_a_at) / RFU CCDC152 (11751479_a_at) / Fold change /veh CCDC152 (11751479_a_at) / RFU FAM211A (11726209_a_at) / Fold change /veh FAM211A (11726209_a_at) / RFU RGS16 (11746705_a_at) / Fold change /veh RGS16 (11746705_a_at) / RFU VCAN (11755009_s_at) / Fold change /veh VCAN (11755009_s_at) / RFU RHOB (11743442_s_at) / Fold change /veh RHOB (11743442_s_at) / RFU RGS16 (11720943_a_at) / Fold change /veh RGS16 (11720943_a_at) / RFU RGS16 (11720944_at) / Fold change /veh RGS16 (11720944_at) / RFU, VPS4B / Fold change vs veh, VPS4B / RFU, CREB1 / Fold change vs veh, CREB1 / RFU, DNAJC13 / Fold change vs veh, DNAJC13 / RFU, GNAQ / Fold change vs veh, GNAQ / RFU, CDK5R1 / Fold change vs veh, CDK5R1 / RFU, ZRANB3 / Fold change vs veh, ZRANB3 / RFU, CUL4A / Fold change vs veh, CUL4A / RFU, CCNY / Fold change vs veh, CCNY / RFU, UFL1 / Fold change vs veh, UFL1 / RFU, COG3 / Fold change vs veh, COG3 / RFU, DIAPH2 / Fold change vs veh, DIAPH2 / RFU, SKA2 / Fold change vs veh, SKA2 / RFU, AFF3 / Fold change vs veh, AFF3 / RFU, LMF1 / Fold change vs veh, LMF1 / RFU, IPO11 / Fold change vs veh, IPO11 / RFU, DFFB / Fold change vs veh, DFFB / RFU, FOXP1 / Fold change vs veh, FOXP1 / RFU, CARD8 / Fold change vs veh, CARD8 / RFU, STRN3 / Fold change vs veh, STRN3 / RFU, ADK / Fold change vs veh, ADK / RFU, RASSF2 / Fold change vs veh, RASSF2 / RFU, WIPF1 / Fold change vs veh, WIPF1 / RFU, LARP1B / Fold change vs veh, LARP1B / RFU, RASA1 / Fold change vs veh, RASA1 / RFU, RB1 / Fold change vs veh, RB1 / RFU, PPFIA1 / Fold change vs veh, PPFIA1 / RFU, MAT2A / Fold change vs veh, MAT2A / RFU, CCT5 / Fold change vs veh, CCT5 / RFU, WDR92 / Fold change vs veh, WDR92 / RFU, CUX1 / Fold change vs veh, CUX1 / RFU, TTC7A / Fold change vs veh, TTC7A / RFU, TMEM135 / Fold change vs veh, TMEM135 / RFU, DEPTOR / Fold change vs veh, DEPTOR / RFU, CPM / Fold change vs veh, CPM / RFU, DNAJB6 / Fold change vs veh, DNAJB6 / RFU, CACNA2D3 / Fold change vs veh, CACNA2D3 / RFU, DTX4 / Fold change vs veh, DTX4 / RFU, TFCP2 / Fold change vs veh, TFCP2 / RFU, GMCL1 /// GMCL1P1 / Fold change vs veh, GMCL1 /// GMCL1P1 / RFU, AEBP2 / Fold change vs veh, AEBP2 / RFU, SNHG1 /// SNORD22 /// SNORD25 /// SNORD26 /// SNORD27 /// SNORD28 /// SNORD29 /// SNORD31 / Fold change vs veh, SNHG1 /// SNORD22 /// SNORD25 /// SNORD26 /// SNORD27 /// SNORD28 /// SNORD29 /// SNORD31 / Fold change (Aza/veh), C12orf56 (ProbeSet 11735607_a_at) / Fold change (ACY-1035/veh), C12orf56 (ProbeSet 11735607_a_at) / Fold change (Aza/veh), FGFR1OP (ProbeSet 11751329_s_at) / Fold change (ACY-1035/veh), FGFR1OP (ProbeSet 11751329_s_at) / Fold change (Aza/veh), VPS36 (ProbeSet 11739960_a_at) / Fold change (ACY-1035/veh), VPS36 (ProbeSet 11739960_a_at) / RFU SYPL1 (11715823_x_at) / Fold change /veh SYPL1 (11715823_x_at) / RFU IGFBP7 (11715501_s_at) / Fold change /veh IGFBP7 (11715501_s_at) / RFU REEP3 (11722064_at) / Fold change /veh REEP3 (11722064_at) / RFU IGLL1 (11728026_x_at) / Fold change /veh IGLL1 (11728026_x_at): dose or concentration left out as unconfirmed
Conditions: ProbeSet 11747937_a_at; LIST D

Nc1ccc(-c2cccs2)cc1NC(=O)c1ccc2c(c1)cc(C1CC1)n2CCN1CCOCC1 [ACY-1035] was tested, and the “Fold change vs veh, DNAJB6” value was 0.86.
